Measurements taken from patent US6362233B1, “Methoxy capped alkoxylated glycerin compounds” (Phoenix Research Corporation, priority 2001, dated 2002).

Test: Hydrolysis stability test: 10% test material in solution adjusted to pH 5 with lactic acid, placed at 50 C. for 5 days
Format: physicochemical
Conditions: pH adjusted to 5 with lactic acid
Excerpt: The compounds of the present invention are stable to hydrolysis and provide emollient properties to skin. Typical of the stability of the compounds of the present invention compared to acetate salts is as follows:
pH adjusted to 5 with lactic acid.
10% test material added to get solution.
Placed at 50 C. for 5 days.

## Glycereth-7-Methoxy capped
  Result (stability to hydrolysis): Stable clear liquid

## Glycereth-7-acetate
  Result (stability to hydrolysis): Acetic smell, hydrolyzed
